PubChem BioAssay AID248 (DTP/NCI, 2004)
Toxic doses and inconclusive results are not listed. Rule as the data show it: active = T/C of 150% or more; inactive = T/C below 125%.

System: L1210 leukemia ip in BDF1 mice, survival T/C
Experiment: NCI In Vivo Anticancer Drug Screen. Data for tumor model L1210 Leukemia (intraperitoneal) in B6D2F1 (BDF1) mice
Details: endpoint: mean survival time, higher = longer survival
How it was run: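 Value reflects the ratio of survival in compound-treated mice to survival in vehicle-treated controls, with both groups carrying the same transplanted tumor.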

[1] = dose: 50.0 mg/kg/injection, schedule: Q01DX001 (ip), vehicle: carboxymethylcellulose (CMC)
[2] = dose: 100.0 mg/kg/injection, schedule: Q01DX001 (ip), vehicle: carboxymethylcellulose (CMC)
[3] = dose: 200.0 mg/kg/injection, schedule: Q01DX001 (ip), vehicle: carboxymethylcellulose (CMC)
[4] = dose: 100.0 mg/kg/injection, schedule: Q01DX009 (ip), vehicle: saline with Tween-80
[5] = dose: 100.0 mg/kg/injection, schedule: Q04DX003 (ip), vehicle: saline with Tween-80
[6] = dose: 100.0 mg/kg/injection, schedule: Q01DX001 (ip), vehicle: saline
[7] = dose: 200.0 mg/kg/injection, schedule: Q01DX001 (ip), vehicle: saline
[8] = dose: 100.0 mg/kg/injection, schedule: Q04DX002 (ip), vehicle: Klucel (hydroxypropylcellulose) (HPC)
[9] = dose: 200.0 mg/kg/injection, schedule: Q04DX002 (ip), vehicle: Klucel (hydroxypropylcellulose) (HPC)
[10] = dose: 400.0 mg/kg/injection, schedule: Q04DX002 (ip), vehicle: Klucel (hydroxypropylcellulose) (HPC)
[11] = dose: 50.0 mg/kg/injection, schedule: Q01DX009 (ip), vehicle: saline
[12] = dose: 400.0 mg/kg/injection, schedule: Q01DX001 (ip), vehicle: saline
[13] = dose: 50.0 mg/kg/injection, schedule: Q04DX003 (ip), vehicle: saline
[14] = dose: 100.0 mg/kg/injection, schedule: Q04DX003 (ip), vehicle: saline
[15] = dose: 200.0 mg/kg/injection, schedule: Q04DX003 (ip), vehicle: saline

Measured: T/C

CC(C)(C)C1CCC2(CC1)CC(=O)N(N1CCCCCC1)C(=O)C2
inactive: [1] 95 % of control | [2] 101 % of control | [3] 95 % of control | dose: 400.0 mg/kg/injection, schedule: Q01DX001 (ip), vehicle: carboxymethylcellulose (CMC) 104 % of control

ClC(Cl)=C1SCCCS1
inactive: dose: 100.0 mg/kg/injection, schedule: Q01DX001 (ip), vehicle: saline with Tween-80 96 % of control | dose: 200.0 mg/kg/injection, schedule: Q01DX001 (ip), vehicle: saline with Tween-80 108 % of control

CCC(=O)N(C)C(=NC)c1ccc(NC(=O)c2ccc(C(=O)Nc3ccc(C(=NC)N(C)C(=O)CC)cc3)cc2)cc1
inactive: dose: 75.0 mg/kg/injection, schedule: Q01DX015 (ip), vehicle: carboxymethylcellulose (CMC) 90 % of control | dose: 100.0 mg/kg/injection, schedule: Q01DX015 (ip), vehicle: carboxymethylcellulose (CMC) 91 % of control | dose: 150.0 mg/kg/injection, schedule: Q01DX015 (ip), vehicle: carboxymethylcellulose (CMC) 90 % of control | dose: 200.0 mg/kg/injection, schedule: Q01DX015 (ip), vehicle: carboxymethylcellulose (CMC) 97 % of control

Cc1cc([N+](=O)[O-])c(Nc2ccc(F)cc2)c([N+](=O)[O-])c1
inactive: [4] 97 % of control | [5] 105 % of control | dose: 200.0 mg/kg/injection, schedule: Q01DX009 (ip), vehicle: saline with Tween-80 92 % of control | dose: 200.0 mg/kg/injection, schedule: Q04DX003 (ip), vehicle: saline with Tween-80 97 % of control | dose: 400.0 mg/kg/injection, schedule: Q01DX009 (ip), vehicle: saline with Tween-80 94 % of control | dose: 400.0 mg/kg/injection, schedule: Q04DX003 (ip), vehicle: saline with Tween-80 100 % of control

C[N+](C)(CCCCOCCCC[N+](C)(C)Cc1ccc([N+](=O)[O-])cc1)Cc1ccc([N+](=O)[O-])cc1
inactive: dose: 1.5 mg/kg/injection, schedule: Q04DX003 (ip), vehicle: saline with Tween-80 98 % of control | dose: 3.0 mg/kg/injection, schedule: Q04DX003 (ip), vehicle: saline with Tween-80 104 % of control

CC1OC(OC2C(O[C@H]3CC[C@@]4(C)C(=CC[C@H]5[C@@H]6C[C@@H]7O[C@]8(CC[C@H](C)CN8)[C@@H](C)[C@@H]7[C@@]6(C)CC[C@@H]54)C3)OC(CO)C(O)C2OC2OC(CO)C(O)C(O)C2O)C(O)C(O)C1O (stereo not given in full)
inactive: dose: 5.0 mg/kg/injection, schedule: Q01DX001 (ip), vehicle: other 97 % of control | dose: 10.0 mg/kg/injection, schedule: Q01DX001 (ip), vehicle: other 109 % of control | dose: 20.0 mg/kg/injection, schedule: Q01DX001 (ip), vehicle: other 106 % of control

O=P(O)(O)OCC(O)CF (stereo not given)
inactive: dose: 2.5 mg/kg/injection, schedule: Q01DX009 (ip), vehicle: saline 89 % of control | dose: 5.0 mg/kg/injection, schedule: Q01DX009 (ip), vehicle: saline 93 % of control | dose: 10.0 mg/kg/injection, schedule: Q01DX009 (ip), vehicle: saline 94 % of control | dose: 44.0 mg/kg/injection, schedule: Q04DX003 (ip), vehicle: saline 109 % of control | dose: 88.0 mg/kg/injection, schedule: Q04DX003 (ip), vehicle: saline 100 % of control | dose: 115.5 mg/kg/injection, schedule: Q04DX003 (ip), vehicle: saline 96 % of control | dose: 175.0 mg/kg/injection, schedule: Q04DX003 (ip), vehicle: saline 92 % of control

C[N+](C)(Cc1ccccc1)/N=C(\[O-])Cc1ccccc1
inactive: [6] 95 % of control | [7] 104 % of control

CCSCCC(C)(N)C(=O)O (stereo not given)
inactive: [8] 97 % of control | [9] 93 % of control | [10] 89 % of control

Cc1ccc(NC2=NCCO2)cc1
inactive: [1] 104 % of control | [2] 96 % of control | [3] 98 % of control

CCCCCCCCCCCCCCCC[N+]1([O-])CCOCC1
inactive: dose: 12.5 mg/kg/injection, schedule: Q01DX009 (ip), vehicle: saline 96 % of control | dose: 25.0 mg/kg/injection, schedule: Q01DX009 (ip), vehicle: saline 102 % of control | [11] 98 % of control

C=C1C(C)=NN=C2C=CN(C(=O)CI)N12
inactive: [6] 109 % of control | [7] 106 % of control | [12] 106 % of control

CCC(C)n1ncc2c(N(C)C)ncnc21 (stereo not given)
inactive: [11] 103 % of control | [13] 105 % of control | [6] 98 % of control | dose: 100.0 mg/kg/injection, schedule: Q01DX009 (ip), vehicle: saline 115 % of control | [14] 105 % of control | [7] 102 % of control | [15] 107 % of control

O=C1C=CC(=O)N1c1ccc(N2C(=O)C=CC2=O)cc1
inactive: dose: 25.0 mg/kg/injection, schedule: Q04DX003 (ip), vehicle: saline 110 % of control | [13] 107 % of control | [14] 100 % of control

CNc1ccccc1C(=O)NNS(=O)(=O)c1ccc(C)cc1
inactive: [6] 102 % of control | [7] 102 % of control | [12] 90 % of control

N#CCn1c(C(F)(F)F)nc2nc(Cl)c(Cl)nc21
inactive: dose: 25.0 mg/kg/injection, schedule: Q01DX009 (ip), vehicle: saline with Tween-80 98 % of control | dose: 50.0 mg/kg/injection, schedule: Q01DX009 (ip), vehicle: saline with Tween-80 98 % of control | [4] 96 % of control | [5] 98 % of control

CCN(CC)CC(=O)CC12CC3CC(CC(C3)C1)C2
inactive: dose: 0.8 mg/kg/injection, schedule: Q04DX002 (ip), vehicle: saline 93 % of control | dose: 1.6 mg/kg/injection, schedule: Q04DX002 (ip), vehicle: saline 97 % of control | dose: 3.1 mg/kg/injection, schedule: Q04DX002 (ip), vehicle: saline 101 % of control | dose: 6.25 mg/kg/injection, schedule: Q04DX002 (ip), vehicle: saline 97 % of control

CCCCCC(CN(C)C)C(O)CCc1ccc(Cl)c(Cl)c1 (stereo not given)
inactive: dose: 25.0 mg/kg/injection, schedule: Q04DX002 (ip), vehicle: Klucel (hydroxypropylcellulose) (HPC) 93 % of control | dose: 50.0 mg/kg/injection, schedule: Q04DX002 (ip), vehicle: Klucel (hydroxypropylcellulose) (HPC) 93 % of control | [8] 104 % of control | [9] 88 % of control | [10] 117 % of control

O=[N+]([O-])c1c(Cl)cccc1-c1c[nH]cc1Cl
inactive: dose: 100.0 mg/kg/injection, schedule: Q01DX001 (ip), vehicle: other 92 % of control | dose: 200.0 mg/kg/injection, schedule: Q01DX001 (ip), vehicle: other 90 % of control | dose: 400.0 mg/kg/injection, schedule: Q01DX001 (ip), vehicle: other 97 % of control

O=C(CSc1ccc([N+](=O)[O-])cn1)c1ccc(Br)cc1
inactive: [14] 102 % of control | [15] 98 % of control | dose: 400.0 mg/kg/injection, schedule: Q04DX003 (ip), vehicle: saline 102 % of control

N#CSc1ncnc2nc[nH]c12
inactive: dose: 3.5 mg/kg/injection, schedule: Q01DX Z (ip), vehicle: water 104 % of control | dose: 5.3 mg/kg/injection, schedule: Q01DX Z (ip), vehicle: water 104 % of control | dose: 6.0 mg/kg/injection, schedule: Q01DX Z (ip), vehicle: water 105 % of control | dose: 8.0 mg/kg/injection, schedule: Q01DX Z (ip), vehicle: water 107 % of control | dose: 8.8 mg/kg/injection, schedule: Q01DX Z (ip), vehicle: water 114 % of control | dose: 12.0 mg/kg/injection, schedule: Q01DX Z (ip), vehicle: water 105 % of control | dose: 13.3 mg/kg/injection, schedule: Q01DX Z (ip), vehicle: water 108 % of control | dose: 20.0 mg/kg/injection, schedule: Q01DX Z (ip), vehicle: water 122 % of control

CCCCC/C(=N/N)c1ccc2cc3c(cc2c1)CCCC3
inactive: [6] 97 % of control | [7] 95 % of control | [12] 90 % of control

CN1CCC(CNC(=O)CCCCCCCCC(=O)NCC2(c3ccccc3)CCN(C)CC2)(c2ccccc2)CC1
inactive: dose: 0.63 mg/kg/injection, schedule: Q01DX Z (ip), vehicle: saline 89 % of control | dose: 1.25 mg/kg/injection, schedule: Q01DX Z (ip), vehicle: saline 89 % of control | dose: 2.5 mg/kg/injection, schedule: Q01DX Z (ip), vehicle: saline 88 % of control | dose: 5.0 mg/kg/injection, schedule: Q01DX Z (ip), vehicle: saline 86 % of control | dose: 5.0 mg/kg/injection, schedule: Q04DX003 (ip), vehicle: saline with Tween-80 102 % of control
